According to patent US5441985A, “Treatment of lower urinary tract disorders with selective norepinephrine uptake inhibitors” (priority 1993, dated 1995):
Where two headings read alike, the source gives them in different places.

How the values were obtained:
cholinergic receptors [1] = settings: read-out: IC50 for displacement of tritiated-quinuclidinol benzoate (QNB) binding, cited from earlier work
nocturnal enuresis = settings: cited from earlier work; for effectiveness in treating nocturnal enuresis: human, in vivo
[2] = system: rat urinary bladder strips; settings: cited from earlier work
rabbit bladder = settings: cited from earlier work
[3] = system: guinea pig bladder muscle strips; settings: guinea pig bladder muscle strips in vitro; cited from earlier work
[4] = system: rabbit urethra and bladder fragments; test: NE release in rabbit urethra and bladder fragments in vitro
[5] = human, in vivo
rat bladder tissue = test: relaxation of rat bladder tissue to NE
rat urethral tissue = test: contractile response of rat urethral tissue to NE
[6] = system: dog urethra and bladder fragments; test: NE release in dog urethra and bladder fragments in vitro
bladder [7] = test: bladder function in the cat; format: in vivo
cholinergic receptors [8] = test: 3H-QNB ligand displacement assay (in vitro anti-cholinergic assay); format: binding; settings: 3H-QNB displacement; read-out: anticholinergic IC50
[9] = system: muscarinic presynaptic receptors; settings: rat bladder tissue in vitro; cited from earlier work
bladder [10] = settings: female dogs; cited from earlier work
[11] = children under 5 years of age; cited from earlier work
dog bladder strips [12] = settings: cited from earlier work
rabbit detrusor strips = rabbit detrusor strips in vitro; cited from earlier work
dog bladder strips [13] = settings: cited from earlier work; remark: listed apart in the source
[14] = system: dog bladder muscle strips; settings: cited from earlier work
frog sciatic nerves = frog sciatic nerves in vitro; cited from earlier work
rabbit bladder strips [15] = settings: cited from earlier work
guinea pig bladder = settings: guinea pig strips in vitro and cystometrogram in vivo; cited from earlier work
human bladder strips = settings: cited from earlier work
stress incontinence = settings: women with stress incontinence; cited from earlier work
dog bladder and urethra = settings: cited from earlier work
rabbit bladder strips [16] = settings: in the presence of imipramine; cited from earlier work
cat bladder = settings: in vivo; cited from earlier work
urethra = settings: female dogs; cited from earlier work
[17] = clinical evaluation as potential treatments for depression, side effects
micturition reflex = settings: cited from earlier work

CC(C)[N+](C)(CCOC(=O)C1c2ccccc2Oc2ccccc21)C(C)C [propantheline]
IC50 (cholinergic receptors [1]; bladder homogenates): 29.5 µM

CN(C)CCC=C1c2ccccc2CCc2ccccc21 [amitriptyline]
effectiveness in treating nocturnal enuresis (nocturnal enuresis): effective | contractile response to electrical stimulation [2]: suppressed the contractile response

CN1[C@@H]2CC[C@H]1C[C@@H](OC(=O)C(CO)c1ccccc1)C2 (some centres unmarked) [atropine]
IC50 (cholinergic receptors [1]): 52 µM | suppression/inhibition of field stimulated contraction (rabbit bladder; rabbit bladder organ bath): 30% | suppression/relaxation of bethanechol-induced contraction (rabbit bladder; rabbit bladder organ bath): 70% | potassium-induced contraction [3]: not effect at high concentration

CNCCC=C1c2ccccc2CCc2ccccc21 [nortriptyline]
effectiveness in treating nocturnal enuresis (nocturnal enuresis): effective

CNCC[C@@H](Oc1ccccc1C)c1ccccc1 [tomoxetine, (-)-N-methyl-3-(2-methylphenoxy)-3-phenylpropylamine]
NE release [4]: increase NE release | noted side effect [5]: urine retention | side effects such as dry mouth, drowsiness, and dizziness [5]: considerably fewer side effects | relaxation of bladder tissue to NE (rat bladder tissue): augment the relaxation | contractile response of urethral tissue to NE (rat urethral tissue): significantly increase the contractile response | NE release [6]: increase NE release | amplitude and frequency of contractions (bladder [7]): decreasing the amplitude and frequency of contractions | bladder capacity (bladder [7]): increasing bladder capacity | IC50 (cholinergic receptors [8]): 21 µM

CCN(CC)CC(=O)Nc1c(C)cccc1C [lidocaine]
potassium-induced contraction [3]: not effect at high concentration

CN(C)CCCN1c2ccccc2CCc2ccccc21 [imipramine]
effect on muscarinic presynaptic receptors [9]: strong antagonistic effect on muscarinic presynaptic receptors | bladder pressure responses to pelvic nerve stimulation (bladder [10]): reduced bladder pressure responses | IC50 (cholinergic receptors [1]; bladder homogenates): 13 µM | NE release [4]: increase NE release | toxicity in children [11]: particularly toxic and potentially lethal in low dosage | further patients with improvements (nocturnal enuresis; following treatment): 15-20% | patients with enuresis cured (nocturnal enuresis; following treatment): over 50% | contractile responses to barium chloride (dog bladder strips [12]): suppressed contractile responses to barium chloride | musculotropic relaxant effect (dog bladder strips [12]; compared with flavoxate): more potent than that of flavoxate | cholinergic contractile responses induced by bethanechol (dog bladder strips [12]; dog bladder strips): suppressed cholinergic contractile responses | carbamylcholine and barium chloride-induced contractions (rabbit detrusor strips): antagonize | contractile responses to acetylcholine (ACH) (dog bladder strips [13]): block in vitro contractile responses | relaxation effects of norepinephrine ([14]; with norepinephrine): enhanced the in vitro relaxation effects of norepinephrine | effect on bladder muscle strips alone ([14]; without norepinephrine): no effects alone | impulse conduction (frog sciatic nerves): block the impulse conduction | contractile responses to acetylcholine (ACH) (rabbit bladder strips [15]): block in vitro contractile responses | activity on bladder (guinea pig bladder): anticholinergic, antispasmodic, and local anesthetic activity | contractile responses to acetylcholine (ACH) (human bladder strips): block in vitro contractile responses | restoring continence (stress incontinence): effective as a single therapy | bladder and urethral pressure responses to pelvic nerve stimulation and other stimuli (dog bladder and urethra): reduce dog bladder and urethral pressure responses | effectiveness of calcium to augment bethanechol-induced contraction (rabbit bladder strips [16]): decreased effectiveness of calcium | effects of hypogastric nerve stimulation on bladder relaxation (cat bladder): potentiated the effects of hypogastric nerve stimulation | suppression/inhibition of field stimulated contraction (rabbit bladder; rabbit bladder organ bath): 50% | suppression/relaxation of bethanechol-induced contraction (rabbit bladder; rabbit bladder organ bath): 50% | urethral pressure (urethra): increase urethral pressure | NE release [6]: increase NE release | noted side effect [17]: urine retention | supraspinal reflex or myogenic activity of bladder (micturition reflex; acute administration): no effect | threshold for activating the bladder-spinal-bladder (vesicovesical) micturition reflex (micturition reflex; acute administration): increased the threshold | threshold for supraspinal reflex (micturition reflex; repeated administration): increased threshold for supraspinal reflex | potassium-induced contraction [3]: suppression of potassium-induced contraction

CNCCCN1c2ccccc2CCc2ccccc21 [desipramine]
effectiveness in treating nocturnal enuresis (nocturnal enuresis): effective | contractile response to electrical stimulation [2]: suppressed the contractile response

COc1ccc(CCN(C)CCCC(C#N)(c2ccc(OC)c(OC)c2)C(C)C)cc1OC (centres unmarked) [verapamil]
suppression/inhibition of field stimulated contraction (rabbit bladder): 81% | suppression/relaxation of bethanechol-induced contraction (rabbit bladder; rabbit, bladder): 85%
